The text below walks through data of patent US10894785B2, “Piperidine derivatives for use in the treatment of pancreatic cancer” (CENTRE HOSPITALIER UNIVERSITAIRE VAUDOIS CHUV, priority 2016, dated 2021).

Molecules are shown by their SMILES.

Series [1] has as its system pancreatic ductal adenocarcinoma (Panc-1). Nature of the series: Anti-tumor activity on Panc-1: cell viability by sulforhodamine or MTT assay. The following applies: Homo sapiens, Panc-1 cells, 96 hours treatment, 0.001-1000 nM. It is filed as cell-based. On the procedure:
The compounds according to the present invention were evaluated for their anti-tumor activities on pancreatic ductal adenocarcinoma (Panc-1). To this end, 0.5×10^6 human malignant cells were treated with various concentrations (0.001-1000 nM) for 96 hours of FK866 or the compounds according to the present invention. Subsequently cell viability was determined using either sulforhodamine assays as described in Caffa I, et al. (Oncotarget. 2015 May 20; 6(14):11820-32) or MTT assays. Sulforhodamine B is a dye able that binds to cellular proteins. […] For MTT assays, human malignant cells were plated in triplicate on 96-well plates and treated as mentioned above. After 96 hours of incubation, 15 μL of dye solution was added to each well and cells were incubated for an additional 4 hours. Stop solution (100 μL/well) was added for 1 hour and the absorbance was read at 570 nm on a spectrophotometer. To confirm whether the cytotoxicity exerted by these compounds involves programmed cell death, drug-induced cell death was evaluated using annexin V and 7AAD double staining as described by the manufacturer for assessing apoptosis or autophagic-cell death using a Beckman Coulter Cytomics Gallios flow cytometer. Dead cells were identified as annexinV+ and/or 7AAD+. GraphPad Prism version 7.00 (GraphPad Software, San Diego, Calif.) was used for IC50 calculation.
For orientation: Formazan colour is commonly taken as a measure of viable cells.

Series [2] in a line: Pharmacokinetics after intraperitoneal administration in female SCID mice (plasma, LC-MS/MS, non compartmental analysis). Format: in vivo. The following applies: 20 mg/kg IP. On the procedure:
The pharmacokinetics parameters of FK866, FE1199, VAL22-2 and MPM07 were determined following intraperitoneal administration (IP) in female SCID mice.
• SCID (Severe Combined ImmunoDeficiency) mice female total 144 • 25 mM in DMSO (dimethylsulfoxyde) of each test drug • Saline solution (0.9%)
Test drugs were dissolved in saline solution at 20 mg/ml. All dosing solutions were controlled by HPLC (High-Performance Liquid Chromatography) analysis. Mouse weight is estimated around 20 g.
Three mice per time point were used in each group.
Blood samples were collected on citrate at 10 min, 30 min, 1 h, 2 h, 4 h, 6 h, 8 h and 24 hours after drug administration. Following centrifugation, resulting plasma was stored at […] pending bioanalysis. Samples were analyzed by LC-MS/MS (Liquid chromatography tandem-mass spectrometry); the lower limit of quantification achieved was between 3 and 12 nM depending on drug. Non compartmental pharmacokinetic analysis was performed on plasma concentration data.

What is called IC50 is the concentration at which inhibition is half-maximal. A higher IC50 goes with lower potency. The compound `COc1ccc(C(=O)N2CCC(CCCCNC(=O)/C=C/c3cccnc3)CC2)c(OC)c1` [FEI-56, (E)-N-(4-(1-(2,4-Dimethoxybenzoyl)piperidin-4-yl)butyl)-3-(pyridin-3-yl)acrylamide] yielded a half-inhibitory concentration (IC50) in series [1] of 3 nM.

As for `COc1cccc(OC)c1C(=O)N1CCC(CCCCNC(=O)/C=C/c2cccnc2)CC1` [FEI-58, (E)-N-(4-(1-(2,6-Dimethoxybenzoyl)piperidin-4-yl)butyl)-3-(pyridin-3-yl)acrylamide], the IC50 in series [1] was 0.6 nM.

The compound `COc1cc(OC)c(C(=O)N2CCC(CCCCNC(=O)/C=C/c3cccnc3)CC2)c(OC)c1` [FEI-62, (E)-3-(Pyridin-3-yl)-N-(4-(1-(2,4,6-trimethoxybenzoyl)piperidin-4-yl)butyl)acrylamide] had an IC50 in series [1] of 1 nM.

In series [1], `COc1ccoc1C(=O)N1CCC(CCCCNC(=O)/C=C/c2cccnc2)CC1` [FEI-71, (E)-N-(4-(1-(3-Methoxyfuran-2-carbonyl)piperidin-4-yl)butyl)-3-(pyridin-3-yl)acrylamide] showed an IC50 of 7 nM.

`O=C(/C=C/c1cccnc1)NCCCCC1CCN(C(=O)c2ccno2)CC1` [FEI-74, (E)-N-(4-(1-(Isoxazole-5-carbonyl)piperidin-4-yl)butyl)-3-(pyridin-3-yl)acrylamide] displayed an IC50 in series [1] of 5 nM.

With `COc1cc(C=O)cc(OC)c1C(=O)N1CCC(CCCCNC(=O)/C=C/c2cccnc2)CC1` [FEI-75, (E)-N-(4-(1-(4-Formyl-2,6-dimethoxybenzoyl)piperidin-4-yl)butyl)-3-(pyridin-3-yl)acrylamide], in series [1], 2 nM corresponded to half-maximal inhibition (IC50).

In series [1], `O=C(/C=C/c1cccnc1)NC/C=C/CC1CCN(C(=O)c2ccccc2)CC1` [FEI-80, (E)-N-((E)-4-(1-Benzoylpiperidin-4-yl)but-2-en-1-yl)-3-(pyridin-3-yl)acrylamide] registered a 50% inhibitory concentration (IC50) of 9 nM.

`COc1cccc(OC)c1C(=O)N1CCC(C/C=C/CNC(=O)/C=C/c2cccnc2)CC1` [FEI-81, (E)-N-((E)-4-(1-(2,6-Dimethoxybenzoyl)piperidin-4-yl)but-2-en-1-yl)-3-(pyridin-3-yl)acrylamide] had an IC50 in series [1] of 2.3 nM.

In series [1], `COc1cc(OC)c(C(=O)N2CCC(C/C=C/CNC(=O)/C=C/c3cccnc3)CC2)c(OC)c1` [FEI-82, (E)-3-(Pyridin-3-yl)-N-((E)-4-(1-(2,4,6-trimethoxybenzoyl)piperidin-4-yl)but-2-en-1-yl)acrylamide] returned an IC50 of 0.4 nM.

On to `O=C(/C=C/c1cccnc1)NC/C=C/CC1CCN(C(=O)c2ccco2)CC1` [FEI-83, (E)-N-((E)-4-(1-(Furan-2-carbonyl)piperidin-4-yl)but-2-en-1-yl)-3-(pyridin-3-yl)acrylamide], for which inhibition in series [1] was half-maximal at 15 nM (IC50).

On to `O=C(/C=C/c1cccnc1)NC/C=C/CC1CCN(C(=O)c2cccs2)CC1` [FEI-85, (E)-3-(Pyridin-3-yl)-N-((E)-4-(1-(thiophene-2-carbonyl)piperidin-4-yl)but-2-en-1-yl)acrylamide], for which, in series [1], the IC50 worked out at 2 nM.

`N#C/N=C(\NCCCCC1CCN(C(=O)c2ccccc2)CC1)Nc1ccncc1` [FEI-154, (E)-1-(4-(1-Benzoylpiperidin-4-yl)butyl)-2-cyano-3-(pyridin-4-yl)guanidine] showed an IC50 in series [1] of 3.9 nM.

As to `N#C/N=C(\NCCCCC1CCN(C(=O)c2ccco2)CC1)Nc1ccncc1` [FEI-158, (E)-2-Cyano-1-(4-(1-(furan-2-carbonyl)piperidin-4-yl)butyl)-3-(pyridin-4-yl)guanidine], the IC50 in series [1] worked out at 6.8 nM.

Compound `N#C/N=C(\NCCCCC1CCN(C(=O)c2ccco2)CC1)Nc1ccc(F)nc1` [FEI-170, (E)-2-Cyano-1-(6-fluoropyridin-3-yl)-3-(4-(1-(furan-2-carbonyl)piperidin-4-yl)butyl)guanidine] yielded an IC50 in series [1] of 18 nM.

Consider `N#C/N=C(\NCCCCC1CCN(C(=O)c2cccs2)CC1)Nc1ccc(F)nc1` [FEI-171, (E)-2-Cyano-1-(6-fluoropyridin-3-yl)-3-(4-(1-(thiophene-2-carbonyl)piperidin-4-yl)butyl)guanidine], for which the IC50 in series [1] turned out to be 12 nM.

`N#C/N=C(\NCCCCCC1CCN(C(=O)c2ccccc2)CC1)Nc1ccncc1` [FEI-190, (E)-1-(5-(1-Benzoylpiperidin-4-yl)pentyl)-2-cyano-3-(pyridin-4-yl)guanidine] came in with an IC50 in series [1] of 2.6 nM.

Compound `N#C/N=C(\NCCCCCC1CCN(C(=O)c2ccco2)CC1)Nc1ccncc1` [FEI-191, (E)-2-Cyano-1-(5-(1-(furan-2-carbonyl)piperidin-4-yl)pentyl)-3-(pyridin-4-yl)guanidine] had an IC50 in series [1] of 1.9 nM.

In series [1], `N#C/N=C(\NCCCCCC1CCN(C(=O)c2cccs2)CC1)Nc1ccncc1` [FEI-192, (E)-2-Cyano-1-(pyridin-4-yl)-3-(5-(1-(thiophene-2-carbonyl)piperidin-4-yl)pentyl)guanidine] had an IC50 of 2.3 nM.

In series [1], `COc1cccc(OC)c1C(=O)N1CCC(CCCCCN/C(=N\C#N)Nc2ccncc2)CC1` [FEI-193, (E)-2-Cyano-1-(5-(1-(2,6-dimethoxybenzoyl)piperidin-4-yl)pentyl)-3-(pyridin-4-yl)guanidine] showed an IC50 of 4.8 nM.

The compound `N#C/N=C(\NC/C=C/CCC1CCN(C(=O)c2ccccc2)CC1)Nc1cccnc1` [FEI-194, (E)-1-((E)-5-(1-Benzoylpiperidin-4-yl)pent-2-en-1-yl)-2-cyano-3-(pyridin-3-yl)guanidine] displayed an IC50 in series [1] of 5 nM.

With `N#C/N=C(\NC/C=C/CCC1CCN(C(=O)c2ccco2)CC1)Nc1cccnc1` [FEI-195, (E)-2-Cyano-1-((E)-5-(1-(furan-2-carbonyl)piperidin-4-yl)pent-2-en-1-yl)-3-(pyridin-3-yl)guanidine], the IC50 in series [1] was found to be 4.6 nM.

In series [1], `N#C/N=C(\NC/C=C/CCC1CCN(C(=O)c2cccs2)CC1)Nc1cccnc1` [FEI-196, (E)-2-Cyano-1-(pyridin-3-yl)-3-((E)-5-(1-(thiophene-2-carbonyl)piperidin-4-yl)pent-2-en-1-yl)guanidine] showed an IC50 of 5.9 nM.

With `N#C/N=C(\NC/C=C/CCC1CCN(C(=O)c2ccccc2)CC1)Nc1ccncc1` [FEI-198, (E)-1-((E)-5-(1-Benzoylpiperidin-4-yl)pent-2-en-1-yl)-2-cyano-3-(pyridin-4-yl)guanidine], the IC50 in series [1] worked out at 5 nM.

Consider `N#C/N=C(\NC/C=C/CCC1CCN(C(=O)c2cccs2)CC1)Nc1ccncc1` [FEI-200, (E)-2-Cyano-1-(pyridin-4-yl)-3-((E)-5-(1-(thiophene-2-carbonyl)piperidin-4-yl)pent-2-en-1-yl)guanidine], for which the IC50 in series [1] was determined as 2.4 nM.

In series [1], `COc1cccc(OC)c1C(=O)N1CCC(CCCCNC(=O)Nc2ccncc2)CC1` [FEI-209, 1-(4-(1-(2,6-Dimethoxybenzoyl)piperidin-4-yl)butyl)-3-(pyridin-4-yl)urea] yielded an IC50 of 8.2 nM.

`COc1cccc(OC)c1C(=O)N1CCC(CCCCNC(=O)/C=C/c2cccnc2F)CC1` [MPM-08]: the IC50 in series [1] was found to be 6 nM.

As to `COc1cccc(OC)c1C(=O)N1CCC(CCCCNC(=O)/C=C/c2ccc(F)nc2F)CC1` [MPM-09], the IC50 in series [1] was 2 nM.

`COc1cc(C=O)cc(OC)c1C(=O)N1CCC(CCCCNC(=O)/C=C/c2cccnc2F)CC1` [MPM-13] showed an IC50 in series [1] of 15.5 nM.

`CCCn1cc(C=O)c(C(=O)N2CCC(CCCCNC(=O)/C=C/c3cccnc3F)CC2)c1C` [MPM-14, (E)-3-(2-fluoropyridin-3-yl)-N-(4-(1-(4-formyl-2-methyl-1-propyl-1H-pyrrole-3-carbonyl)piperidin-4-yl)butyl)acrylamide]: in series [1], it took 7.54 nM to reach half-maximal inhibition (IC50).

Take `O=C(/C=C/c1ccc(F)nc1F)NCCCCC1CCN(C(=O)c2ccccc2)CC1` [PER-201, (E)-N-(4-(1-benzoylpiperidin-4-yl)butyl)-3-(2,6-difluoropyridin-3-yl)acrylamide]: half-maximal inhibition in series [1] (IC50) required 14 nM.

In series [1], `O=C(/C=C/c1ccc(F)nc1F)NCCCCC1CCN(C(=O)c2cccs2)CC1` [PER-202] yielded an IC50 of 5 nM.

The Cmax is the maximum level reached in the sampled fluid or tissue. The Tmax is the time from dosing to the highest level. In general, AUC(0-inf) refers to total exposure, with the tail of the curve extrapolated. Take `O=C(/C=C/c1cccnc1F)NCCCCC1CCN(C(=O)c2ccccc2)CC1` [VAL22-2, (E)-N-(4-(1-benzoylpiperidin-4-yl)butyl)-3-(2-fluoropyridin-3-yl)acrylamide]: the CL in series [2] (CL calculated as dose/AUC) is given as 23.6 mL/h. For the same compound, in series [2] (plasma, relative to AUC0-inf), the “Percentage of extrapolated AUC from T6 h to infinity” value is reported as 1.4%. Further, the T1/2α in series [2] (plasma, t½α (0 -> 6 h)) was determined as 27.6 min. This compound had a T1/2β in series [2] (plasma, t½β (6 -> 24 h)) of 515 min. Moreover, the “half-lives in the second phase (6 h→24 h) compared with FK866” value in series [2] (plasma, versus FK866) is “improved and longer half-lives”. In series [2] (mouse, plasma), the highest level (Cmax) was 16900 ng/mL and the Tmax was found to be 10 min. In addition, in series [2] (mouse, plasma, log-trapezoidal rule, extrapolated to infinity), the AUC(0-inf) was 8470 ng·h/mL. The AUC(0-t) in series [2] (mouse, plasma, read-out: AUC0-8 h) turned out to be 8400 ng·h/mL.
